Publication PMC11864979, “First-in-class ultralong-target-residence-time p38α inhibitors as a mitosis-targeted therapy for colorectal cancer” (Nature Cancer, 2025)
Read-outs that look alike come from different tables or passages of the source.

Columns and labels:
Assay in all cases: selectivity profiling in a panel of 340 wild-type kinases (Reaction Biology Europe)
Type in all cases: binding
[1] = biological target: T1, 340 wild-type kinases (Homo sapiens, UniProt Q9UIK4)
T1 construct: purchased Reaction Biology Europe

[2] = biological target: T2, 340 wild-type kinases (Homo sapiens, UniProt O75676)
T2 construct: purchased Reaction Biology Europe

[3] = biological target: T3, 340 wild-type kinases (Homo sapiens, UniProt P08581)
T3 construct: purchased Reaction Biology Europe

[4] = biological target: T4, 340 wild-type kinases (Homo sapiens, UniProt P24723)
T4 construct: purchased Reaction Biology Europe

[5] = biological target: T5, 340 wild-type kinases (Homo sapiens, UniProt Q15759)
T5 construct: purchased Reaction Biology Europe

[6] = biological target: T6, 340 wild-type kinases (Homo sapiens, UniProt O96017)
T6 construct: purchased Reaction Biology Europe

[7] = biological target: T7, 340 wild-type kinases (Homo sapiens, UniProt P53778)
T7 construct: purchased Reaction Biology Europe
T7 sequence (P53778 1-367): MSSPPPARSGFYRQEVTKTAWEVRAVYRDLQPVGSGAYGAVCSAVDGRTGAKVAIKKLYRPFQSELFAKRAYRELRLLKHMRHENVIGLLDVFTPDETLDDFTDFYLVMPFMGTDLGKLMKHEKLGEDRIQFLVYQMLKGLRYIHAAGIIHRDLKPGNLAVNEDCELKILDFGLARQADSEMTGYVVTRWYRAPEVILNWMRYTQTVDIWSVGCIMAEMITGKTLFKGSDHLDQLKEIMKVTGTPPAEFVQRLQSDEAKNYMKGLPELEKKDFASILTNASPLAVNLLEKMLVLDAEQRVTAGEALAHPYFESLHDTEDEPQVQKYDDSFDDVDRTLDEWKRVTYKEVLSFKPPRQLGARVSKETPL

[8] = biological target: T8, 340 wild-type kinases (Homo sapiens, UniProt Q7KZI7)
T8 construct: purchased Reaction Biology Europe

[9] = biological target: T9, 340 wild-type kinases (Homo sapiens, UniProt Q12866)
T9 construct: purchased Reaction Biology Europe
T9 sequence (Q12866 21-999): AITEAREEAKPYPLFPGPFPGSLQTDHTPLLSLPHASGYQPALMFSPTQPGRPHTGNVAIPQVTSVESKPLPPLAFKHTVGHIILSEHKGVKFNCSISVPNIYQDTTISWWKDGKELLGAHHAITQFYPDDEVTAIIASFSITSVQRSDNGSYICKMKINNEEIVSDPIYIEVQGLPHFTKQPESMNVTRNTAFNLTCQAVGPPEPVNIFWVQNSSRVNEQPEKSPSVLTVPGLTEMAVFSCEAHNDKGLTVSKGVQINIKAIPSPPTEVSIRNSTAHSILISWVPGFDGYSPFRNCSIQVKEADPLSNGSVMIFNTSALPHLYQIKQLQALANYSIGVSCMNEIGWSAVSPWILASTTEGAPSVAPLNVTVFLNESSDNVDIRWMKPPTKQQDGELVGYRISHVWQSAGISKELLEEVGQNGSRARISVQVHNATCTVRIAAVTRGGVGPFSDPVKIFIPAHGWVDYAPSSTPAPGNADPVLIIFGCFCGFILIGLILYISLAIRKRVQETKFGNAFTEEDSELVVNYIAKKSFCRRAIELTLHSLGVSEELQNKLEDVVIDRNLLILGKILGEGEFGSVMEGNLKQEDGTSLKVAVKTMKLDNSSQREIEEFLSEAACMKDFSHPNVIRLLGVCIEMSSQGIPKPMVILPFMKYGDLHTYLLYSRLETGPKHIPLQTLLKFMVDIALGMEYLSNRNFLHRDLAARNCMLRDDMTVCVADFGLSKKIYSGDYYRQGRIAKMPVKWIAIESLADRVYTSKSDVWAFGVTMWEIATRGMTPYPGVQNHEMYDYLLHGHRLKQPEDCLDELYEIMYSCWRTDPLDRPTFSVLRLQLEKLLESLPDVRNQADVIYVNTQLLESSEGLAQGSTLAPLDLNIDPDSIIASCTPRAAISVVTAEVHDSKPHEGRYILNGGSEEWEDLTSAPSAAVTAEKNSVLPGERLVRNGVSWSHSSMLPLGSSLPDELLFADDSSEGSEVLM

[10] = biological target: T10, 340 wild-type kinases (Homo sapiens, UniProt P06241)
T10 construct: purchased Reaction Biology Europe

[11] = biological target: T11, 340 wild-type kinases (Homo sapiens, UniProt P04049, Y340D/Y341D); conditions: read-out: RAF1 YDYD residual activity
T11 construct: purchased Reaction Biology Europe

[12] = biological target: T12, 340 wild-type kinases (Homo sapiens, UniProt P08922)
T12 construct: purchased Reaction Biology Europe

T3 sequence (P08581 25-1390): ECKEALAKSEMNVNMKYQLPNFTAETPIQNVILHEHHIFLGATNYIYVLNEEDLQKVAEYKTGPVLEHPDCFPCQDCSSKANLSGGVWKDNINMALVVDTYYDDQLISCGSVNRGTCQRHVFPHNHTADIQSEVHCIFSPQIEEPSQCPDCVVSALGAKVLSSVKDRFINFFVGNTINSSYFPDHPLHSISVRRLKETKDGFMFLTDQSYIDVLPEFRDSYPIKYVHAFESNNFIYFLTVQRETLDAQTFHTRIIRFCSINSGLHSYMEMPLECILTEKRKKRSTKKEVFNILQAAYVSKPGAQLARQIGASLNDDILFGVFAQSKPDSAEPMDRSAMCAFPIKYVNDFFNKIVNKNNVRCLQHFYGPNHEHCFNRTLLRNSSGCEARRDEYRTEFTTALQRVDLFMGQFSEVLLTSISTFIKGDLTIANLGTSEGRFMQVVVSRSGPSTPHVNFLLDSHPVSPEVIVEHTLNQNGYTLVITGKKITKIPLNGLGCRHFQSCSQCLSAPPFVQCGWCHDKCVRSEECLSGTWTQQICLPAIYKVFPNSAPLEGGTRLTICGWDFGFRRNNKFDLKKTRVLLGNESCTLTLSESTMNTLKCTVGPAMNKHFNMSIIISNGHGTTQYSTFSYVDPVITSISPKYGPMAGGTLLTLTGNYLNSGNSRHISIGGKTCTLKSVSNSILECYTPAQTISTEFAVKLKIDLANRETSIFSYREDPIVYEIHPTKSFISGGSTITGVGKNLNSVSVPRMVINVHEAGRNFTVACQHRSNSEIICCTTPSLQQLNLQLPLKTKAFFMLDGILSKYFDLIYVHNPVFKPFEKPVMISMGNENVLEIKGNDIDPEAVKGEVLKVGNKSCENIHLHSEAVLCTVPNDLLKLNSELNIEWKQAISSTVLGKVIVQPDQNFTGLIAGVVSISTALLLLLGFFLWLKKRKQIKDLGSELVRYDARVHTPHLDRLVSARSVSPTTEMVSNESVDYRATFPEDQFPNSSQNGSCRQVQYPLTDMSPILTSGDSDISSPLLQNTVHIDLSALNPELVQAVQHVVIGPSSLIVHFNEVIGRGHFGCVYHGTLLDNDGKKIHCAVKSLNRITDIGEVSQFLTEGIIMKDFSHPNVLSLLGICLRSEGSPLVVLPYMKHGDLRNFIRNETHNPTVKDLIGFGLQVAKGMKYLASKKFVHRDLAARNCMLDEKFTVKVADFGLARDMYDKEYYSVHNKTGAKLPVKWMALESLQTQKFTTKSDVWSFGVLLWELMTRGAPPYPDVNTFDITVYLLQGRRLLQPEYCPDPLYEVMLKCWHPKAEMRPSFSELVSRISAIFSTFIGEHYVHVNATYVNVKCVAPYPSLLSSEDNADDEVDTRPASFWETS
T2 sequence (O75676 whole entry): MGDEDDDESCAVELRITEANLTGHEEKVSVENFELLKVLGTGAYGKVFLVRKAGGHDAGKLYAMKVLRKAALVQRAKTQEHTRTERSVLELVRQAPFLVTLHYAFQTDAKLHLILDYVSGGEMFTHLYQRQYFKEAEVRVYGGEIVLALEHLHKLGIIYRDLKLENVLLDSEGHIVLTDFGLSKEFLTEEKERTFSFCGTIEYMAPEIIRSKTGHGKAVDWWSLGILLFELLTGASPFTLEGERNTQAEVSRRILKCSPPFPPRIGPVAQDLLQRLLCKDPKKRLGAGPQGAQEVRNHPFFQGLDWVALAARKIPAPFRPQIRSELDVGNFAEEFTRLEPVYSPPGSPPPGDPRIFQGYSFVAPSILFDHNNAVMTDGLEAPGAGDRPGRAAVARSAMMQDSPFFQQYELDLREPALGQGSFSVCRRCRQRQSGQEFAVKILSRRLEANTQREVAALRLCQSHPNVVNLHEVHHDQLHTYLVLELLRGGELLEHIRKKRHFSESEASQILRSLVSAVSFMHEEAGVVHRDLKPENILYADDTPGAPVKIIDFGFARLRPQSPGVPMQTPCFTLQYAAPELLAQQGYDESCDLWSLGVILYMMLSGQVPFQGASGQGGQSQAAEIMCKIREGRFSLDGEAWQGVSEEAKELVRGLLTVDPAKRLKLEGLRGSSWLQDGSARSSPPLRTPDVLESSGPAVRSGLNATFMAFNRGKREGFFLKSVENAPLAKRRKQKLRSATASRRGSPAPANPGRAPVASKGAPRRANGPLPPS
T4 sequence (P24723 whole entry): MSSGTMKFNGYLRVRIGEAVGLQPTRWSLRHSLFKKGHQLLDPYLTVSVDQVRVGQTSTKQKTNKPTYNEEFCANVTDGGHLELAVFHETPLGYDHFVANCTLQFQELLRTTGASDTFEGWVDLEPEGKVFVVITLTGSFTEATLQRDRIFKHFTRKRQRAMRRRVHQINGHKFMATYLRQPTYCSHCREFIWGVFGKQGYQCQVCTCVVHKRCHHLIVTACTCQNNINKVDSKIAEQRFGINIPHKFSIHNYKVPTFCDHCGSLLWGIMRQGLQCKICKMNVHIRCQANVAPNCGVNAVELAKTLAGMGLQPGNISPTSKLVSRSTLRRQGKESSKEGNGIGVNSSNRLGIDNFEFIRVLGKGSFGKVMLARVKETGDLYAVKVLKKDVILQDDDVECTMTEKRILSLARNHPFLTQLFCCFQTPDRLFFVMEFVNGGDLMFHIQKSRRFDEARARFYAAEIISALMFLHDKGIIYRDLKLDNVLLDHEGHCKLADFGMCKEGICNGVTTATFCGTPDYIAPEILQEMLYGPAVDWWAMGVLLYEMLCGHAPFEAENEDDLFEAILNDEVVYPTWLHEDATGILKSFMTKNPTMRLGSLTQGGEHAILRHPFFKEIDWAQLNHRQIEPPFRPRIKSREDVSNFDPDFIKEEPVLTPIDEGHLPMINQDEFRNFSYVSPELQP
T5 sequence (Q15759 whole entry): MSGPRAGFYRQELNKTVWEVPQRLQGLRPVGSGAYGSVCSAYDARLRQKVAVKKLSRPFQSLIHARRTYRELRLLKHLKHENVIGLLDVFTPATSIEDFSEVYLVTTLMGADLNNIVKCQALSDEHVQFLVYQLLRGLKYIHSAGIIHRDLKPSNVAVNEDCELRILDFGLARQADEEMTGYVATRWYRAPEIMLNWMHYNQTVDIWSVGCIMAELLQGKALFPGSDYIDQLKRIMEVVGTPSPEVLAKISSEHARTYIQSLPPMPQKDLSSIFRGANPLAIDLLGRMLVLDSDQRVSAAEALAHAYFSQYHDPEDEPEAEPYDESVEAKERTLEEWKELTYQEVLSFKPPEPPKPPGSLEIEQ
T6 sequence (O96017 whole entry): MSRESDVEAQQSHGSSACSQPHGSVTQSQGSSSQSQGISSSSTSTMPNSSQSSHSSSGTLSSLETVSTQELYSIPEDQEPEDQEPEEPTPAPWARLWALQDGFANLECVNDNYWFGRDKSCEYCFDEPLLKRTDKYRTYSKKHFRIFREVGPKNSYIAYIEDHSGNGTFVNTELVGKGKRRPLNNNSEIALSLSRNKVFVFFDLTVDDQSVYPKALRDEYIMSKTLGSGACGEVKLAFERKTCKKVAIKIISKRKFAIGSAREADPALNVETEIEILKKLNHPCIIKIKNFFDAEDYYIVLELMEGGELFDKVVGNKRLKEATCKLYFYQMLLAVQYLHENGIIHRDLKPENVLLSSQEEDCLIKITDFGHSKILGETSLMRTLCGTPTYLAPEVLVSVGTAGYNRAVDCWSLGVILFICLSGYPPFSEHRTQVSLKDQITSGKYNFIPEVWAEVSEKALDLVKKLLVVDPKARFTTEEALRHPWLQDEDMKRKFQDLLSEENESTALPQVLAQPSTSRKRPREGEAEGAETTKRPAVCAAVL
T8 sequence (Q7KZI7 whole entry): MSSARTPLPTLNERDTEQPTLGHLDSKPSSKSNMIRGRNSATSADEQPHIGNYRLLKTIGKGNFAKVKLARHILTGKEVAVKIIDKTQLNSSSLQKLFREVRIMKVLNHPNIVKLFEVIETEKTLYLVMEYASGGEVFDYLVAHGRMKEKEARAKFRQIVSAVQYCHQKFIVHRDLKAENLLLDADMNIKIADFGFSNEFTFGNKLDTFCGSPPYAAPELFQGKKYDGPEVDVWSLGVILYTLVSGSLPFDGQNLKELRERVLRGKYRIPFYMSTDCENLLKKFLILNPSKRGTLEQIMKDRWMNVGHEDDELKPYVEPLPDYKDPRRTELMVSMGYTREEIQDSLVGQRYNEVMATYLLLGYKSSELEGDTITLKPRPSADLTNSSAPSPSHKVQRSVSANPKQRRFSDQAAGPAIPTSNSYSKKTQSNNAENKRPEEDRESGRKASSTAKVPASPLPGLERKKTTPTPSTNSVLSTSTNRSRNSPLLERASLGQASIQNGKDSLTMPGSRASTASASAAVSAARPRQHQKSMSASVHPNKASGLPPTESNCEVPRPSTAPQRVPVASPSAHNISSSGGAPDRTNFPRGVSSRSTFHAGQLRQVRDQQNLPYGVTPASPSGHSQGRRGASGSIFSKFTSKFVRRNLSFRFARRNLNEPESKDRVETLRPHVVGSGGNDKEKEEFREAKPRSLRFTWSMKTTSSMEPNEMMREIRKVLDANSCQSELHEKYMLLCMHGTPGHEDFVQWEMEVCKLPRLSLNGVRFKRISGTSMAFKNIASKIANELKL
T1 sequence (Q9UIK4 whole entry): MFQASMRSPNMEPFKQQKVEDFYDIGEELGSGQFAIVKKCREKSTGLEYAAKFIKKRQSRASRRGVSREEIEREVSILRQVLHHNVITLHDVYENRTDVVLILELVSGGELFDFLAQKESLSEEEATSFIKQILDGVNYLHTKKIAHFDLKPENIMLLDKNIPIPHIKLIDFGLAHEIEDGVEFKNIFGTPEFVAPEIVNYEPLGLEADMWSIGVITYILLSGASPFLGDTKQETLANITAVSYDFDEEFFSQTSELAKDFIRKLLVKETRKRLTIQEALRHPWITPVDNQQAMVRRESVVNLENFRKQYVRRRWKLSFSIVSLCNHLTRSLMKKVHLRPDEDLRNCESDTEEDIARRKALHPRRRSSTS

SMILES: CNC(=O)c1ccc2c(c1)C(=O)c1ccc(Nc3ccc(F)c(NC(=O)C4CC4)c3)cc1CC2 [Compound 2015]
- remaining activity at 0.2 µM ([1]; 0.2 µM 2015, read-out: DAPK2 residual activity): 116%
- remaining activity at 1 µM ([1]; 1 µM 2015, read-out: DAPK2 residual activity): 100%
- remaining activity at 0.2 µM ([1]; DAPK2, 0.2 µM, read-out: residual activity): 116%
- remaining activity at 1 µM ([1]; DAPK2, 1 µM, read-out: residual activity): 100%
- remaining activity at 0.2 µM ([2]; 0.2 µM 2015, read-out: RPS6KA4 residual activity): 95.3%
- remaining activity at 1 µM ([2]; 1 µM 2015, read-out: RPS6KA4 residual activity): 89.4%
- remaining activity at 0.2 µM ([2]; RPS6KA4, 0.2 µM, read-out: residual activity): 95.3%
- remaining activity at 1 µM ([2]; RPS6KA4, 1 µM, read-out: residual activity): 89.4%
- remaining activity at 0.2 µM ([3]; 0.2 µM 2015, read-out: MET residual activity): 96.7%
- remaining activity at 1 µM ([3]; 1 µM 2015, read-out: MET residual activity): 93.5%
- remaining activity at 0.2 µM ([3]; MET, 0.2 µM, read-out: residual activity): 96.7%
- remaining activity at 1 µM ([3]; MET, 1 µM, read-out: residual activity): 93.5%
- remaining activity at 0.2 µM ([4]; 0.2 µM 2015, read-out: PKCeta residual activity): 80.3%
- remaining activity at 1 µM ([4]; 1 µM 2015, read-out: PKCeta residual activity): 90.1%
- remaining activity at 0.2 µM ([4]; PKCeta, 0.2 µM, read-out: residual activity): 80.3%
- remaining activity at 1 µM ([4]; PKCeta, 1 µM, read-out: residual activity): 90.1%
- remaining activity at 0.2 µM ([5]; 0.2 µM 2015, read-out: p38beta residual activity): 1.85%
- remaining activity at 1 µM ([5]; 1 µM 2015, read-out: p38beta residual activity): 1.94%
- remaining activity at 0.2 µM ([5]; p38beta, 0.2 µM, read-out: residual activity): 1.85%
- remaining activity at 1 µM ([5]; p38beta, 1 µM, read-out: residual activity): 1.94%
- remaining activity at 0.2 µM ([6]; 0.2 µM 2015, read-out: CHK2 residual activity): 102%
- remaining activity at 1 µM ([6]; 1 µM 2015, read-out: CHK2 residual activity): 94.9%
- remaining activity at 0.2 µM ([6]; CHK2, 0.2 µM, read-out: residual activity): 102%
- remaining activity at 1 µM ([6]; CHK2, 1 µM, read-out: residual activity): 94.9%
- remaining activity at 0.2 µM ([7]; 0.2 µM 2015, read-out: p38gamma residual activity): 83.5%
- remaining activity at 1 µM ([7]; 1 µM 2015, read-out: p38gamma residual activity): 77.7%
- remaining activity at 0.2 µM ([7]; p38gamma, 0.2 µM, read-out: residual activity): 83.5%
- remaining activity at 1 µM ([7]; p38gamma, 1 µM, read-out: residual activity): 77.7%
- remaining activity at 0.2 µM ([8]; 0.2 µM 2015, read-out: MARK2 residual activity): 101%
- remaining activity at 1 µM ([8]; 1 µM 2015, read-out: MARK2 residual activity): 99.5%
- remaining activity at 0.2 µM ([8]; MARK2, 0.2 µM, read-out: residual activity): 101%
- remaining activity at 1 µM ([8]; MARK2, 1 µM, read-out: residual activity): 99.5%
- remaining activity at 0.2 µM ([9]; 0.2 µM 2015, read-out: MERTK residual activity): 88.3%
- remaining activity at 1 µM ([9]; 1 µM 2015, read-out: MERTK residual activity): 97%
- remaining activity at 0.2 µM ([9]; MERTK, 0.2 µM, read-out: residual activity): 88.3%
- remaining activity at 1 µM ([9]; MERTK, 1 µM, read-out: residual activity): 97%
- remaining activity at 0.2 µM ([10]; 0.2 µM 2015, read-out: FYN residual activity): 119%
- remaining activity at 1 µM ([10]; 1 µM 2015, read-out: FYN residual activity): 101%
- remaining activity at 0.2 µM ([10]; FYN, 0.2 µM, read-out: residual activity): 119%
- remaining activity at 1 µM ([10]; FYN, 1 µM, read-out: residual activity): 101%
- remaining activity at 0.2 µM ([11]; 0.2 µM 2015): 80.3%
- remaining activity at 1 µM ([11]; 1 µM 2015): 88.8%
- remaining activity at 0.2 µM ([12]; 0.2 µM 2015, read-out: ROS residual activity): 114%
- remaining activity at 1 µM ([12]; 1 µM 2015, read-out: ROS residual activity): 94.6%
- remaining activity at 0.2 µM ([12]; ROS, 0.2 µM, read-out: residual activity): 114%
- remaining activity at 1 µM ([12]; ROS, 1 µM, read-out: residual activity): 94.6%
